Experimental data as given in PMC10062662, “Quantitative determination of lurbinectedin, its unbound fraction and its metabolites in human plasma utilizing ultra-performance LC–MS/MS” (PLOS ONE, 2023).
Read-outs that look alike come from different tables or passages of the source.

How the values were obtained:
[1] = Stability of stock and working solutions at -20°C; format: physicochemical; details: -20°C ±5°C
Method: The stability of stock and working solutions, as well the stability of IS stock solution, following storage at -20°C ±5°C were investigated by concordance verification by comparing the stored solution against a freshly prepared one.

[2] = Lurbinectedin concentration in treated patient plasma sample (UPLC-MS/MS); format: in vivo, human; details: single treated patient plasma sample of Fig 2
Method: The sample extraction was performed by adding 100 μL of the CS, QC or test sample, 50 μL of aqueous IS solution and 50 μL of 1 M ammonium hydroxide to a 300-μL 96-well microtiter plate. This was then mixed and transferred to a 200-mg Isolute SLE+ plate. After 5 minutes of equilibrium, the samples were then eluted from the SLE plate with 1 mL of MTBE into glass inserts and dried under nitrogen. The samples were then reconstituted with 40 μL of acetonitrile:water (1:1, v:v) with 0.1% of formic acid prior to analysis.
The ultra-performance liquid chromatography (UPLC) system was coupled to a triple quadrupole mass spectrometer. The UPLC system was a Acquity system (Waters, Milford, MA, USA) and composed of a binary pump, column oven and cooled auto sampler. The mass spectrometer was a TQD with an electrospray ionization source from Waters.
The analytical column was a BEH C18 (1.7 μm, 50 × 2.1 mm) and was used in conjunction with a pre-column frit (0.2 μm, 2.1 mm) from Waters. The chromatographic separation was performed at 50°C with a flow rate of 0.4 mL/minute utilizing a linear gradient of water (A) and acetonitrile (B), both with 0.1% ammonium hydroxide: 10% to 100% B from 0.00 to 1.00 minute; isocratic at 100% B for 1.50 minute, then returning to initial conditions from 2.50 to 2.51 minutes with a total run time of 3.5 minutes. The samples were kept at 10°C until injection (10 μL). […]

[3] = Stability in human K3-EDTA plasma under different test conditions; format: in vitro ADME
Method: Likewise, a wide range of long-term stability tests reflecting the sort of real-world storage issues that can occur in hospital-based clinical studies (e.g., short-term storage at -20°C before transfer to -80°C, availability of -60°C but not -80°C), was evaluated to ensure plasma samples are analyzed before degradation can occur. Therefore, the following plasma stability tests were performed: room temperature, freeze thaw (one cycle consisted of 2 hours at room temperature followed by freezing for at least 12 hours at -80°C ± 10°C) and long-term (at -20°C ± 5°C, -60°C ± 10°C and -80°C ± 10°C). For each stability test, two concentrations (LQC and HQC) and six replicates per level were analyzed. For acceptance criteria, the precision (%CV) was ≤15% and the bias when compared with the nominal concentration was ±15%. […]

plasma protein = test: Plasma protein binding by rapid equilibrium dialysis (RED) in K3-EDTA plasma from donors; format: in vitro ADME, human; details: for percent bound: 100 ng/mL, RED 8 hours 37°C
Excerpt: (§1) RED was considered the best alternative over other methods (e.g., ultrafiltration) to separate lurbinectedin unbound fraction (fu), due to high non-specific binding (NSB) of lurbinectedin leading to adsorption. The RED device consists of a cylinder of dialysis membrane with an 8-kDa molecular weight cut-off held in place by a polytetrafluoroethylene support; the dialysis membrane tube is closed at one end. The RED devices are disposable and used in a reusable polytetrafluoroethylene support plate (holds a maximum of 48 devices). The design of the plate and device allows for PBS to be added in such a way that it can circulate freely around the cylinder of dialysis membrane. In use, spiked plasma (400 μL) is added to the dialysis membrane cylinder part of the RED device, and PBS (600 μL) is added to the other side. The plate, device and volumes used result in a consistent fluid level across both sides of the membrane, preventing mass movement of fluid across the membrane due to hydrostatic pressure.
(§2) Each measurement was performed using three RED devices; the devices were placed in the plate and spiked plasma and PBS were added. The plate was then mixed on an incubating microplate shaker at 100 rpm and 37°C for 8 hours.
(§3) Both the plasma (diluted 1 in 20 with plasma:PBS 1:1, v:v) and PBS (diluted with plasma 1:1, v:v) were assayed in triplicate using the extraction and UPLC-MS/MS method described above. Transfer of the PBS from the incubation plate into an equivalent volume of plasma prior to assay was performed using pipette tips that had been pre-treated with Sigmacote®.
(§4) In vitro PPB experiments to determine lurbinectedin fu were conducted with RED in K3-EDTA plasma from donors. Fresh plasma (not previously frozen), previously frozen plasma (fresh plasma subjected to four cycles of freeze [at -80°C ±10°C for ≥12 hours] then thawed [at room temperature for 2 hours]) and diluted fresh plasma (not previously frozen, diluted 1:1 with PBS prior to incubation) were spiked to 100 ng/mL with lurbinectedin and then equilibrated with PBS in RED devices for 8 hours at 37°C and assayed.
(§5) In addition, the stability of lurbinectedin PPB in fresh plasma following storage at -80°C ±10°C was evaluated; aliquots of fresh plasma samples (not previously frozen) from three donors were spiked with 500 ng/mL of lurbinectedin. The samples were stored for at least 21, 30, 62 and 91 days prior to analysis; the day 0 aliquots were not frozen before analysis. The spiked aliquots from the three donors were equilibrated with PBS in RED devices in triplicate. The samples generated in the RED devices were analyzed in triplicate.

[4] = as above; format: in vitro ADME, human; details: human; for fraction unbound at 8 h, 100 ng/mL: RED 8 hours 37°C; for fraction unbound at 8 h, 100 ng/mL / fraction unbound at 8 h, 500 ng/mL: read-out: mean percent unbound
Excerpt: as §1, §2, §3, §4, §5

[5] = 4 freeze-thaw cycles, nom. conc. 0.3 ng/mL
[6] = 4 freeze-thaw cycles, nom. conc. 40 ng/mL
[7] = 37°C, 8 hours, nom. conc. 0.3 ng/mL
[8] = 37°C, 8 hours, nom. conc. 40 ng/mL
[9] = -20°C ±5°C, 23 days, nom. conc. 0.3 ng/mL
[10] = -20°C ±5°C, 23 days, nom. conc. 40 ng/mL
[11] = -60°C ±10°C, 245 days, nom. conc. 0.3 ng/mL
[12] = -60°C ±10°C, 245 days, nom. conc. 40 ng/mL
[13] = -80°C ±10°C, 853 days, nom. conc. 0.3 ng/mL
[14] = -80°C ±10°C, 853 days, nom. conc. 40 ng/mL
[15] = Ambient, 16.5 hours, nom. conc. 0.3 ng/mL
[16] = Ambient, 16.5 hours, nom. conc. 40 ng/mL

## COc1ccc2[nH]c3c(c2c1)CCN[C@]31CS[C@@H]2c3c(OC(C)=O)c(C)c4c(c3[C@H](COC1=O)N1[C@@H]2[C@H]2c3c(cc(C)c(OC)c3O)C[C@@H]([C@@H]1O)N2C)OCO4 [Lurbinectedin]
[1]; 5 ng/mL in DMSO:ammonium acetate 10 mM ~pH 3 (1:1, v:v)
  stability of working solution following storage for 7 days: not demonstrated
[1]; 1 mg/mL in DMSO
  stability of stock solution in DMSO: ≥ 32 days
[2]
  plasma concentration in a treated patient sample: 177 ng/mL
[3]; [5]
  Bias: -4%
  Measured conc.: 0.289 ng/mL
[3]; [6]
  Bias: -5%
  Measured conc.: 38.0 ng/mL
[3]; [7]
  Bias: -2%
  Measured conc.: 0.293 ng/mL
[3]; [8]
  Bias: 1%
  Measured conc.: 40.2 ng/mL
[3]; [9]
  Bias: -10%
  Measured conc.: 0.271 ng/mL
[3]; [10]
  Bias: -9%
  Measured conc.: 36.2 ng/mL
[3]; [11]
  Bias: -5%
  Measured conc.: 0.285 ng/mL
[3]; [12]
  Bias: -10%
  Measured conc.: 36.1 ng/mL
[3]; [13]
  Bias: -10%
  Measured conc.: 0.269 ng/mL
[3]; [14]
  Bias: -9%
  Measured conc.: 36.3 ng/mL
[3]; [15]
  Bias: -8%
  Measured conc.: 0.276 ng/mL
[3]; [16]
  Bias: 3%
  Measured conc.: 41.0 ng/mL
Plasma protein; diluted fresh plasma (1:1 with PBS)
  percent bound: 99.3%
Plasma protein; fresh plasma (not previously frozen)
  percent bound: 99.6%
Plasma protein; human, K3-EDTA plasma (fresh, from three donors), following storage at -80°C ±10°C for ≥91 days, read-out: PPB
  fraction unbound at 8 h, 500 ng/mL: < 0.01
Plasma protein; previously frozen plasma (four freeze-thaw cycles)
  percent bound: 99.6%
Plasma protein; storage at -80°C ±10°C, three donors
  stability of PPB in fresh plasma following storage: ≥ 91 days
[4]; fresh K3-EDTA plasma diluted 1:1 with PBS, diluted fresh plasma (1:1 with PBS)
  fraction unbound at 8 h, 100 ng/mL: 0.00668
[4]; fresh K3-EDTA plasma from three donors (not frozen), fresh plasma from three donors, day 0 (not frozen)
  fraction unbound at 8 h, 500 ng/mL: 0.00151 to 0.00335
[4]; plasma, human plasma, RED (abstract)
  fraction unbound at 8 h: 0.004
[4]; previously frozen K3-EDTA plasma (four freeze-thaw cycles), previously frozen plasma (four freeze-thaw cycles)
  fraction unbound at 8 h, 100 ng/mL: 0.00443
[4]; three donors, day 21 after storage at -80°C ±10°C
  fraction unbound at 8 h, 500 ng/mL: 0.00206 to 0.00319
[4]; three donors, day 30 after storage at -80°C ±10°C
  fraction unbound at 8 h, 500 ng/mL: 0.00168 to 0.00266
[4]; three donors, day 62 after storage at -80°C ±10°C
  fraction unbound at 8 h, 500 ng/mL: 0.00196 to 0.00286
[4]; three donors, day 91 after storage at -80°C ±10°C
  fraction unbound at 8 h, 500 ng/mL: 0.00159 to 0.00213
